With `Cc1ccc(NC(=O)Nc2ccc(-c3c(C(N)=O)[nH]c4ncccc34)cc2)cc1C(F)(F)F` [Example 26, 3-{4-[3-(4-Methyl-3-trifluoromethylphenyl)ureido]phenyl}-1H-pyrrolo[2,3-b]pyridine-2-carboxamide] as the compound, how does the melting point read?
Its melting point is 285 °C.

With `NC(=O)c1[nH]c2cnccc2c1-c1ccc(NC(=O)Nc2ccc(OC(F)F)c(Cl)c2)cc1` [Example 58, 3-{4-[3-(3-Chloro-4-difluoromethoxyphenyl)ureido]phenyl}-1H-pyrrolo[2,3-c]pyridine-2-carboxamide] as the compound, how does the melting point read?
Its melting point is 267 °C.

For `NC(=O)c1[nH]c2cnccc2c1-c1ccc(NC(=O)Nc2ccc(OC(F)(F)F)cc2)cc1` [Example 42, 3-{4-[3-(4-Trifluoromethoxyphenyl)ureido]phenyl}-1H-pyrrolo[2,3-c]pyridine-2-carboxamide], which melting point is on record?
Its melting point is 276 °C.

With `Cc1ccc(NC(=O)Nc2ccc(-c3c(C(N)=O)[nH]c4cnccc34)cc2)cc1` [Example 39, 3-[4-(3-p-Tolylureido)phenyl]-1H-pyrrolo[2,3-c]pyridine-2-carboxamide] as the compound, how does the melting point read?
Its melting point is 277 °C.

For `NC(=O)c1[nH]c2ncccc2c1-c1ccc(NC(=O)Nc2cc(C(F)(F)F)ccc2Cl)cc1` [Example 12, 3-{4-[3-(2-Chloro-5-trifluoromethylphenyl)ureido]phenyl}-1H-pyrrolo[2,3-b]pyridine-2-carboxamide], which melting point is on record?
Its melting point is 188.3 °C.

Which melting point does the source give for `NC(=O)c1[nH]c2ncccc2c1-c1ccc(NC(=O)Nc2cc(F)cc(C(F)(F)F)c2)cc1` [Example 15, 3-{4-[3-(3-Fluoro-5-trifluoromethylphenyl)ureido]phenyl}-1H-pyrrolo[2,3-b]pyridine-2-carboxamide] here?
The melting point was 257.5 °C.

Which melting point does the source give for `COc1cccc(NC(=O)Nc2ccc(-c3c(C(N)=O)[nH]c4ncccc34)cc2)c1` [Example 19, 3-{4-[3-(3-Methoxyphenyl)ureido]phenyl}-1H-pyrrolo[2,3-b]-pyridine-2-carboxamide] here?
The melting point was 306.2 °C.

Which melting point does the source give for `COc1ccccc1NC(=O)Nc1ccc(-c2c(C(N)=O)[nH]c3cnccc23)cc1` [Example 34, 3-{4-[3-(2-Methoxyphenyl)ureido]phenyl}-1H-pyrrolo[2,3-c]pyridine-2-carboxamide] here?
The melting point was 216 °C.

With `NC(=O)c1[nH]c2cnccc2c1-c1ccc(NC(=O)Nc2cccc(F)c2)cc1` [Example 48, 3-{4-[3-(3-Fluorophenyl)ureido]phenyl}-1H-pyrrolo[2,3-c]-pyridine-2-carboxamide] as the compound, how does the melting point read?
Its melting point is 252 °C.

With `NC(=O)c1[nH]c2cnccc2c1-c1ccc(NC(=O)Nc2ccc(Cl)c(C(F)(F)F)c2)cc1` [Example 40, 3-{4-[3-(4-Chloro-3-trifluoromethylphenyl)ureido]phenyl}-1H-pyrrolo[2,3-c]pyridine-2-carboxamide] as the compound, how does the melting point read?
Its melting point is 228 °C.

For `NC(=O)c1[nH]c2cnccc2c1-c1ccc(NC(=O)Nc2cc(F)cc(C(F)(F)F)c2)cc1` [Example 50, 3-{4-[3-(3-Fluoro-5-trifluoromethylphenyl)ureido]phenyl}-1H-pyrrolo[2,3-c]pyridine-2-carboxamide], which melting point is on record?
Its melting point is 261 °C.

Which melting point does the source give for `NC(=O)c1[nH]c2cnccc2c1-c1ccc(NC(=O)Nc2cccc(C(F)(F)F)c2F)cc1` [Example 49, 3-{4-[3-(2-Fluoro-3-trifluoromethylphenyl)ureido]phenyl}-1H-pyrrolo[2,3-c]pyridine-2-carboxamide] here?
Its melting point is 240 °C.

Which melting point does the source give for `NC(=O)c1[nH]c2cnccc2c1-c1ccc(NC(=O)Nc2ccc(C(F)(F)F)cc2)cc1` [Example 38, 3-{4-[3-(4-Trifluoromethylphenyl)ureido]phenyl}-1H-pyrrolo-[2,3-c]pyridine-2-carboxamide] here?
Its melting point is 289 °C.

Which melting point does the source give for `NC(=O)c1[nH]c2ncccc2c1-c1ccc(NC(=O)Nc2ccccc2F)cc1` [Example 9, 3-{4-[3-(2-Fluorophenyl)ureido]phenyl}-1H-pyrrolo[2,3-b]-pyridine-2-carboxamide] here?
The melting point was 268.7 °C.

With `NC(=O)c1[nH]c2cnccc2c1-c1ccc(NC(=O)Nc2cccc(Cl)c2)cc1.O=C(O)C(F)(F)F` as the compound, how does the melting point read?
The melting point was 221 °C.
